Assay [1] addresses T1, human TLR7 (Homo sapiens, UniProt Q9NYK1).
T1 construct: host or cells: HEK-Blue human TLR7 cells (HEK293-derived; own knowledge: stably transfected with the human TLR7 gene)
T1 sequence (Q9NYK1 27-1049): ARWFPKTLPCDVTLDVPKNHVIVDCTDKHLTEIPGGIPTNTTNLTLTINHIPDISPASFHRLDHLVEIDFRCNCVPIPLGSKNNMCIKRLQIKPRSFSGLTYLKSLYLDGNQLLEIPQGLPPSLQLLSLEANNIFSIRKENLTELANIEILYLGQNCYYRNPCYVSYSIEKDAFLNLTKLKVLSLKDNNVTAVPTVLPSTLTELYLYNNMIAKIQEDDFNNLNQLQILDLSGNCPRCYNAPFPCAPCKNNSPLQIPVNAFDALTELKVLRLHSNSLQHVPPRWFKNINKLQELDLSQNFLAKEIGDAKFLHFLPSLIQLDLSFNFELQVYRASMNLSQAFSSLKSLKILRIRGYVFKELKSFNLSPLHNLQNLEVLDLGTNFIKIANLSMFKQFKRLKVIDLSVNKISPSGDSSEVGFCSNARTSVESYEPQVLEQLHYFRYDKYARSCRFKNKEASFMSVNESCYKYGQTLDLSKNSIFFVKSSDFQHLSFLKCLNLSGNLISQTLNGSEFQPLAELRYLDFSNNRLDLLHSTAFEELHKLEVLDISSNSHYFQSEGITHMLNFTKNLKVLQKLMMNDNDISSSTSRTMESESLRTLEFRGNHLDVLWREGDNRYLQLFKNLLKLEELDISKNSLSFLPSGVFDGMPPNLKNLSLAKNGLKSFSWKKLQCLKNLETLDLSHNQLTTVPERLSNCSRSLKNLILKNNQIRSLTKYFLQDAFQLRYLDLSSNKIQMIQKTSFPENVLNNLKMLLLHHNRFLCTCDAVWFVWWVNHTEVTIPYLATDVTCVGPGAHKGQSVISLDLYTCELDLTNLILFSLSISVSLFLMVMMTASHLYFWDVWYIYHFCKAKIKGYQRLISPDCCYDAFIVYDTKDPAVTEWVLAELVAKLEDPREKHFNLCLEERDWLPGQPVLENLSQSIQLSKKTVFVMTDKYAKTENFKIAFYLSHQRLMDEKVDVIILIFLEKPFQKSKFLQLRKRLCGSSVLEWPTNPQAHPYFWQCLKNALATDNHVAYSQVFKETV
Briefly: HEK-Blue human TLR7 cells, NF-κB SEAP reporter assay. As to conditions: stimulation for 20 hours, SEAP reporter read at 640 nm. Format: cell-based. An excerpt:
(§1) For TLR8 and TLR7 activity testing, HEK-Blue human TLR8 or TLR7 cells (Invivogen, San Diego, Calif., USA) are used, respectively. These cells are designed for studying the stimulation of human TLR8 or TLR7 by monitoring the activation of NF-κB. A SEAP (secreted embryonic alkaline phosphatase) reporter gene is placed under the control of the IFN-b minimal promoter fused to five NF-κB and AP-1-binding sites. Therefore the reporter expression is regulated by the NF-κB promoter upon stimulation of human TLR8 or TLR7 for 20 hours. The cell culture supernatant SEAP reporter activity was determined using Quanti Blue kit (Invivogen, San Diego, Ca, USA) at a wavelength of 640 nm, a detection medium that turns purple/blue in the presence of alkaline phosphatase.

Assay [2] addresses T2, human TLR8 (Homo sapiens, UniProt Q9NR97).
T2 construct: host or cells: HEK-Blue human TLR8 cells (HEK293-derived; own knowledge: stably transfected with the human TLR8 gene)
T2 sequence (Q9NR97 27-1041): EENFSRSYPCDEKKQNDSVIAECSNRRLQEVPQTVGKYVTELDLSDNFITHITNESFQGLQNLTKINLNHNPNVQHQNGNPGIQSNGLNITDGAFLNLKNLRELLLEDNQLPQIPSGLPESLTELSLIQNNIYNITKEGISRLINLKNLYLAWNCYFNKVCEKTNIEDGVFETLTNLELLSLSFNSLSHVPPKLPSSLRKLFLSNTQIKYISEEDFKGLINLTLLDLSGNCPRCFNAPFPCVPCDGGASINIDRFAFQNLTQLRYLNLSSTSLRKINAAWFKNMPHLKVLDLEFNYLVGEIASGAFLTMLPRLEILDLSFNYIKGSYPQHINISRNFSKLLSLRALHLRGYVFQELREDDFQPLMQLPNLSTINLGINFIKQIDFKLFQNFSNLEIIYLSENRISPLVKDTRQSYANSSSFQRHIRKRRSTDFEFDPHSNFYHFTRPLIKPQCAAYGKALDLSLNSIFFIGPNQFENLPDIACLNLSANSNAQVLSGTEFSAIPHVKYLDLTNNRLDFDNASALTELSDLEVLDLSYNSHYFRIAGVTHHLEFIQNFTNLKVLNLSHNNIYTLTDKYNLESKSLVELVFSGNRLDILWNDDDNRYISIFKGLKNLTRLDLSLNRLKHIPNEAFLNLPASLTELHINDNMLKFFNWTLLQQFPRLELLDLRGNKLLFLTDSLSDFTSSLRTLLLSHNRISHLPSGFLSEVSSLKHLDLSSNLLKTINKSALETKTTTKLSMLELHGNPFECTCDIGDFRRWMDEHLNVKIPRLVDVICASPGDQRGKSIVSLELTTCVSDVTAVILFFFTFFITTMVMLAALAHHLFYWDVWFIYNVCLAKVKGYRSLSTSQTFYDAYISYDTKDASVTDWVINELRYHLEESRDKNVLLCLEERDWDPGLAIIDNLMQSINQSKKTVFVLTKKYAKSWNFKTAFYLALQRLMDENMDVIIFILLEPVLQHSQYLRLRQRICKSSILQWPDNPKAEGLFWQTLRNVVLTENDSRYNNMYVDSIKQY
Briefly: HEK-Blue human TLR8 cells, NF-κB SEAP reporter assay. Format: cell-based. The following applies: stimulation for 20 hours, SEAP reporter read at 640 nm.
Description: as §1

For the molecule `CCCN(CCC)C(=O)C1=Cc2ccc(-c3cccc(S(C)(=O)=NCCOCCO)c3)cc2N=C(N)C1` (stereo not shown) [Example 3, 2-Amino-8-[3-[N-[2-(2-hydroxyethoxy)ethyl]-S-methyl-sulfonimidoyl]phenyl]-N,N-dipropyl-3H-1-benzazepine-4-carboxamide], the EC50 in assay [1] is 55000 nM; in assay [2], 11 nM.

With `CCCN(CCC)C(=O)C1=Cc2ccc(-c3cccc([S+]([O-])CC)c3)cc2N=C(N)C1` (stereo not shown) [Example 10, 2-Amino-8-(3-ethylsulfinylphenyl)-N,N-dipropyl-3H-1-benzazepine-4-carboxamide], the half-maximal effective concentration (EC50) in assay [1] is 16000 nM; in assay [2], 8 nM.

Consider `CCCN(CCC)C(=O)C1=Cc2ccc(-c3ccc(S(=N)(=O)CC)cc3)cc2N=C(N)C1` (stereo not shown) [Example 9, 2-Amino-8-[4-(ethylsulfonimidoyl)phenyl]-N,N-dipropyl-3H-1-benzazepine-4-carboxamide], for which the EC50 in assay [1] stood at 32000 nM; in assay [2], 25 nM.

For the molecule `CCCN(CCC)C(=O)C1=Cc2ccc(-c3cccc([S+](C)[O-])c3)cc2N=C(N)C1` (stereo not shown) [Example 5, 2-Amino-8-(3-methylsulfinylphenyl)-N,N-dipropyl-3H-1-benzazepine-4-carboxamide], the EC50 in assay [1] worked out at 12100 nM; in assay [2], 4 nM.

Regarding `CCCN(CCC)C(=O)C1=Cc2ccc(-c3ccc([S+](C)[O-])cc3)cc2N=C(N)C1` (stereo not shown) [Example 1, 2-Amino-8-(4-methylsulfinylphenyl)-N,N-dipropyl-3H-1-benzazepine-4-carboxamide], the concentration for a half-maximal effect (EC50) in assay [1] was 19000 nM; in assay [2], 26 nM.

As to `CCCN(CCC)C(=O)C1=Cc2ccc(-c3cccc(S(=N)(=O)CC)c3)cc2N=C(N)C1` (stereo not shown) [Example 11, 2-Amino-8-[3-(ethylsulfonimidoyl)phenyl]-N,N-dipropyl-3H-1-benzazepine-4-carboxamide], the EC50 was found to be 39000 nM in assay [1] and 15 nM in assay [2].

For the molecule `CCCN(CCC)C(=O)C1=Cc2ccc(-c3cncc(S(C)(=N)=O)c3)cc2N=C(N)C1` (stereo not shown) [Example 6, 2-Amino-8-[5-(methylsulfonimidoyl)-3-pyridyl]-N,N-dipropyl-3H-1-benzazepine-4-carboxamide], the EC50 is 14800 nM in assay [1] and 28 nM in assay [2].

Turning to `CCCN(CCC)C(=O)C1=Cc2ccc(-c3cccc(S(C)(=N)=O)c3)cc2N=C(N)C1` (stereo not shown) [Example 7, 22-Amino-8-[3-(methylsulfonimidoyl)phenyl]-N,N-dipropyl-3H-1-benzazepine-4-carboxamide], the EC50 in assay [1] worked out at 15400 nM; in assay [2], 13 nM.

For the molecule `CCCN(CCC)C(=O)C1=Cc2ccc(-c3ccc([S+]([O-])CC)cc3)cc2N=C(N)C1` (stereo not shown) [Example 8, 2-Amino-8-(4-ethylsulfinylphenyl)-N,N-dipropyl-3H-1-benzazepine-4-carboxamide], the EC50 in assay [1] came out at 23000 nM; in assay [2], 21 nM.

`CCCN(CCC)C(=O)C1=Cc2ccc(-c3cncc([S+](C)[O-])c3)cc2N=C(N)C1` (stereo not shown) [Example 4, 2-Amino-8-(5-methylsulfinyl-3-pyridyl)-N,N-dipropyl-3H-1-benzazepine-4-carboxamide]: the EC50 in assay [1] is 2400 nM; in assay [2], 8 nM.

Take `CCCN(CCC)C(=O)C1=Cc2ccc(-c3ccc(S(C)(=N)=O)cc3)cc2N=C(N)C1` (stereo not shown) [Example 2, 2-Amino-8-[4-(methylsulfonimidoyl)phenyl]-N,N-dipropyl-3H-1-benzazepine-4-carboxamide]: the EC50 in assay [1] worked out at 25000 nM; in assay [2], 25 nM.
